US9045482B2, “Pyrido[4,3-B]indoles and methods of use” (Medivation Technologies, Inc., priority 2009, dated 2015)

How the values were obtained:
[1] = molecular target: human recombinant serotonin (5-Hydroxytryptamine) 5-HT7 receptor (Homo sapiens, UniProt P34969); assay: Serotonin 5-HT7 radioligand binding ([3H]LSD); settings: 0.1 μM ligand concentration
Procedure: Compounds of invention were incubated with 5.5 nM [^3H]Lysergic acid diethylamide (LSD) for 2 h at 25° C. […] Receptor proteins were filtered and washed, the filters were then counted to determine [^3H]LSD specifically bound. Compounds were screened at 1 μM or lower, using 1% DMSO as vehicle. Biochemical assay results are presented as the percent inhibition of specific binding in Table 4.

[2] = molecular target: T1, human recombinant serotonin (5-Hydroxytryptamine) 5-HT2A receptor (Homo sapiens, UniProt P28223); assay: Serotonin 5-HT2A radioligand binding ([3H]Ketanserin); settings: 0.1 μM ligand concentration
T1 construct: expressed in transfected cells; host or cells: Chinese hamster ovary (CHO-K1) cells
T1 sequence (P28223 whole entry): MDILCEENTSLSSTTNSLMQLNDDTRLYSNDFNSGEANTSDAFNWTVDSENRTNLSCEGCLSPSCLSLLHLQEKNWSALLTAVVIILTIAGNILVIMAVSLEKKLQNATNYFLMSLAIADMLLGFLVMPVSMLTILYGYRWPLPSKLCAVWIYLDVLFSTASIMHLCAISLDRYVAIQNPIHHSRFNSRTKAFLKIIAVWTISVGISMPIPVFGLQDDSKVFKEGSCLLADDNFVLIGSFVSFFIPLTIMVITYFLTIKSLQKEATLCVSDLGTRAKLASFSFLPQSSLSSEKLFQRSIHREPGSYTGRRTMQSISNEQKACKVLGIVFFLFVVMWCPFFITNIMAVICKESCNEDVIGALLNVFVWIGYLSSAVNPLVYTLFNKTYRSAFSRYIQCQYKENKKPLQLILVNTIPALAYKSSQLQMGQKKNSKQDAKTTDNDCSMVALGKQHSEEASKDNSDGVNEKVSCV
Procedure: (1997), 68:1998] in a 50 mM Tris-HCl buffer, pH 7.4, was used. Compounds of the invention were incubated with 0.5 nM [^3H]Ketanserin for 60 min at 25° C. Non-specific binding was estimated in the presence of 1 μM Mianserin. Receptor proteins were filtered and washed, the filters were then counted to determine [^3H]Ketanserin specifically bound. Compounds were screened at 1 μM or lower, using 1% DMSO as vehicle. Biochemical assay results are presented as the percent inhibition of specific binding in Table 4.

[3] = molecular target: T2, human recombinant serotonin (5-Hydroxytryptamine) 5-HT6 receptor (Homo sapiens, UniProt P50406); assay: Serotonin 5-HT6 radioligand binding ([3H]LSD); settings: 0.1 μM ligand concentration
T2 construct: expressed in transfected cells; host or cells: human HeLa cells
T2 sequence (P50406 whole entry): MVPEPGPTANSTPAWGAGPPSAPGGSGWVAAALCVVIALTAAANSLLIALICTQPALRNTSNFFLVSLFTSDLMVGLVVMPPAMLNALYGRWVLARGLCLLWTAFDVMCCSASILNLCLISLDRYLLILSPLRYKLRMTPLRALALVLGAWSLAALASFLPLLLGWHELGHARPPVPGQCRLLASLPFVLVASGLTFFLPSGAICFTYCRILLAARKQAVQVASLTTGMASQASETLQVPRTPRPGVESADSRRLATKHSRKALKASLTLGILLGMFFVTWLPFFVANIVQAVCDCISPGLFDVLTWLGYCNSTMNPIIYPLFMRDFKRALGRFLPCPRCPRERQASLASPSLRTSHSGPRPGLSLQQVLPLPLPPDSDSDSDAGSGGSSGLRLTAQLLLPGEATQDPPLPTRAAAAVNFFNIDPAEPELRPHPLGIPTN
Procedure: Compounds of the invention were incubated with 1.5 nM [3H]Lysergic acid diethylamide (LSD) for 120 min at 37° C. […] Receptor proteins were filtered and washed, the filters were then counted to determine [3H]LSD specifically bound. Compounds were screened at 1 μM or lower, using 1% DMSO as vehicle. Biochemical assay results are presented as the percent inhibition of specific binding in Table 4.

[4] = molecular target: T3, human recombinant adrenergic α2B receptor (Homo sapiens, UniProt P18089); assay: Adrenergic α2B radioligand binding ([3H]Rauwolscine); settings: 0.1 μM ligand conc.
T3 construct: expressed in transfected cells; host or cells: Chinese hamster ovary (CHO-K1) cells
T3 sequence (P18089 1-450): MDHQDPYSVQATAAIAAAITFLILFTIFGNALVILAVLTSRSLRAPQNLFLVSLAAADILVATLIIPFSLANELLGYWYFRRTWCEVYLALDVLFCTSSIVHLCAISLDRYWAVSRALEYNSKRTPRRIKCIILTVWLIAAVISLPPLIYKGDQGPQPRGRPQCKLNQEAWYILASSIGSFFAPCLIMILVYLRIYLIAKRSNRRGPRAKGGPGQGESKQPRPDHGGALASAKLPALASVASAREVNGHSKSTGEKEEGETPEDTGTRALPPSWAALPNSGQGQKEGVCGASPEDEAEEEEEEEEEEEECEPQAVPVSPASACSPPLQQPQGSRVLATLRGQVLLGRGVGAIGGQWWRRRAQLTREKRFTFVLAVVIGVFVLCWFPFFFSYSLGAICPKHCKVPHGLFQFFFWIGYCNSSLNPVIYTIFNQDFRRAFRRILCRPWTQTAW
Procedure: To evaluate in radioligand binding assays the activity of compounds of the invention, human recombinant adrenergic α2B receptor expressed in Chinese hamster ovary (CHO-K1) cells [Uhlen, S. et al., Eur. J. Pharmacol. (1998), 343(1):93] in a modified Tris-HCl buffer (50 mM Tris-HCl, pH 7.4, 12.5 mM MgCl2, 1 mM EDTA, 0.2% BSA) was used. Compounds of the invention were incubated with 2.5 nM [^3H]Rauwolscine for 60 min at 25° C. Non-specific binding was estimated in the presence of 10 μM Prozosin. Receptor proteins were filtered and washed, the filters were then counted to determine [^3H]Rauwolscine specifically bound. Compounds were screened at 1 μM or lower, using 1% DMSO as vehicle. Compounds of the invention were tested in this biochemical assay. Biochemical assay results for representative compounds were presented as the percent inhibition of specific binding in Table 3.

Sequence of human recombinant serotonin (5-Hydroxytryptamine) 5-HT7 receptor (P34969 whole entry): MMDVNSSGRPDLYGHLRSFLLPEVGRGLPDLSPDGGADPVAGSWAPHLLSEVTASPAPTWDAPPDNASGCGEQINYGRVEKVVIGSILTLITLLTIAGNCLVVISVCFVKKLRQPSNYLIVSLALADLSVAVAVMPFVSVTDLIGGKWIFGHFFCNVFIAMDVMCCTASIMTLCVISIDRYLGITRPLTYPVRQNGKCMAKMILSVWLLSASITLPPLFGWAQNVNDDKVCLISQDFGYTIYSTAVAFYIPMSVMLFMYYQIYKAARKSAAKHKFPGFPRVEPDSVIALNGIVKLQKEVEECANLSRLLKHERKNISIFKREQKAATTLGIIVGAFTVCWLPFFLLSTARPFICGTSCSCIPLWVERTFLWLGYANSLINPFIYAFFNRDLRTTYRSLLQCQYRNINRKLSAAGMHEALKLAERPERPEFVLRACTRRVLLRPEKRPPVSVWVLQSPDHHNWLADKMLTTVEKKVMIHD

## Cc1cnc2c(c1)c1c(n2CC(=O)N2CCCCC2)CCN2CCCC12 (centres unmarked) [Compound 41, 2-(10-methyl-2,3,5,6-tetrahydro-1H-pyrido[3′,2′:4,5]pyrrolo[2,3-g]indolizin-7(11cH)-yl)-1-(piperidin-1-yl)ethanone]
[1]
  Percent Inhibition of ligand binding Serotonin 5-HT7: −5%
[2]
  Percent Inhibition of ligand binding Serotonin 5-HT2A: −2%
[3]
  Percent Inhibition of ligand binding Serotonin 5-HT6: 8%
[4]
  Percent Inhibition of ligand binding Adrenergic α2B: 14%

## Cc1cnc2c(c1)c1c(n2CC(=O)N2CCCCC2)CC2CCCN2C1 (centres unmarked) [Compound 42, 2-(3-methyl-8,9,9a,10-tetrahydro-5H-pyrido[3′,2′:4,5]pyrrolo[3,2-f]indolizin-11(7H)-yl)-1-(piperidin-1-yl)ethanone]
[1]
  Percent Inhibition of ligand binding Serotonin 5-HT7: −1%
[2]
  Percent Inhibition of ligand binding Serotonin 5-HT2A: 1%
[3]
  Percent Inhibition of ligand binding Serotonin 5-HT6: 2%
[4]
  Percent Inhibition of ligand binding Adrenergic α2B: 3%
